Assay results from PMC12597552 (Drug metabolism and disposition: the biological fate of …, 2025).
Entries after “also recorded” stand apart in the source; their conditions may differ. Where two headings read alike, the source gives them in different places.

Key:
[1] = test system: CYPs 1A2, 2B6, 2C8, 2C9, 2C19, 2D6, 2E1, and 3A4; experiment: Initial inhibition screen at 1 or 10 μM, panel of major hepatic P450 enzymes; type: in vitro ADME, human; details: for inhibition of other major hepatic P450 enzymes tested: enzymes other than CYPs 2C9 and 3A4; for inhibition of any P450 enzymes tested: 1 or 10 μM, recombinant microsomes and HLM
[2] = test system: CYP2C9 and CYP3A4; experiment: IC50,u / Ki,u summarised across all CYP2C9 and CYP3A4 enzyme-substrate pairs; type: in vitro ADME; details: human
[3] = cited from earlier work
[4] = set by similarity to Δ9-THC; cited from earlier work
[5] = biological target: T1, CYP2C9 (Homo sapiens, UniProt P11712); experiment: IC50 shift assay in recombinant CYP2C9 microsomes; type: in vitro ADME; set-up: made in house; details: recombinant CYP2C9-overexpressing microsomes, probe diclofenac (4′-hydroxylation), 4′-hydroxylation of diclofenac, rec CYP2C9, 30-min preincubation minus vs plus NADPH, mean ± SD
Experimental: (§1) To characterize inhibition type, IC50 shift studies were performed using recombinant P450-overexpressing microsomes. Assays were preincubated at 37°C for 30 minutes with cannabinoid with or without NADPH in the absence of a probe substrate. After preincubation, substrate was added and incubated for 30 minutes. IC50 values were calculated as mentioned above using GraphPad Prism 10.0.
(§2) IC50shift=IC50with30-minpreincubationminusNADPH/IC50with30-minpreincubationplusNADPH

[6] = biological target: T2, CYP3A4 (Homo sapiens, UniProt P08684); experiment: IC50 shift assay in recombinant CYP3A4 microsomes; type: in vitro ADME; set-up: made in house; details: recombinant CYP3A4-overexpressing microsomes, probe midazolam (1′-hydroxylation), 1′-hydroxylation of midazolam, rec CYP3A4, 30-min preincubation minus vs plus NADPH, mean ± SD
Experimental: as §1, §2

[7] = biological target: T1, CYP2C9; experiment: Inhibition of recombinant CYP2C9-overexpressing microsomes (diclofenac and warfarin probes); type: in vitro ADME; set-up: made in house; host or cells: HEK293 cells (microsomal fraction); details: for Inhibition Type: cell merged over rec CYP2C9 and HLM; for inhibition mechanism (Lineweaver–Burk): recombinant P450 microsomes and HLM, consistent profiles; for IC50: IC50,u, rec CYP2C9 microsomes; for IC50 / Ki: unbound, mean ± SD; for Ki: Ki,u, rec CYP2C9
[8] = biological target: T2, CYP3A4; experiment: Inhibition of recombinant CYP3A4-overexpressing microsomes (midazolam probe); type: in vitro ADME; set-up: made in house; host or cells: HEK293 cells (microsomal fraction); details: for Inhibition Type: 1′-hydroxylation of midazolam, cell merged over rec CYP3A4 and HLM; for inhibition mechanism (Lineweaver–Burk): CYP3A4-mediated midazolam metabolism, recombinant P450 microsomes and HLM, consistent profiles
[9] = biological target: T1, CYP2C9; experiment: Inhibition of CYP2C9 activity in pooled human liver microsomes (diclofenac and warfarin probes); type: in vitro ADME; set-up: made in house; host or cells: HEK293 cells (microsomal fraction); details: HLM, unbound, adjusted with fu,inc, mean ± SD; for IC50: IC50,u; for Ki: Ki,u
[10] = biological target: T2, CYP3A4; experiment: Inhibition of CYP3A4 activity in pooled human liver microsomes (midazolam probe); type: in vitro ADME; set-up: made in house; host or cells: HEK293 cells (microsomal fraction)
[11] = biological target: T1, CYP2C9; experiment: Initial inhibition screen at 1 or 10 μM, CYP2C9 (recombinant microsomes and HLM); type: in vitro ADME; set-up: made in house; host or cells: HEK293 cells (microsomal fraction); details: 10 μM cannabinoid; recombinant P450-overexpressing microsomes as well as HLM
[12] = biological target: T2, CYP3A4; experiment: Initial inhibition screen at 1 or 10 μM, CYP3A4 (recombinant microsomes and HLM); type: in vitro ADME; set-up: made in house; host or cells: HEK293 cells (microsomal fraction); details: for reduction of 1′-hydroxymidazolam formation: 10 μM cannabinoid, recombinant P450-overexpressing microsomes as well as HLM; for inhibition of CYP3A4 with testosterone as substrate: substrate-specific: midazolam vs testosterone
[13] = test system: CYP2B6; details: read-out: Ki,u, cited from earlier work
[14] = biological target: T1, CYP2C9; details: CYP2C9-mediated 4′-hydroxylation of diclofenac; cited from earlier work
[15] = biological target: T2, CYP3A4; details: CYP3A4-mediated 1′-hydroxylation of midazolam; cited from earlier work
[16] = test system: CYP3A4; set-up: method as in PMID 34493602; details: 800 mg oral dose of CBD; mechanistic static modeling; cited from earlier work
[17] = value set in static model; cited from earlier work
[18] = test system: CB1 receptors; set-up: method as in PMID 10633038; details: partial agonist; cited from earlier work
[19] = test system: CB2 receptors; set-up: method as in PMID 10633038; details: partial agonist; cited from earlier work
[20] = test system: CYP1A2; details: read-out: Ki,u, cited from earlier work
[21] = test system: CYP2C19; details: read-out: Ki,u, cited from earlier work
[22] = test system: CYP2D6; details: read-out: Ki,u, cited from earlier work
[23] = test system: CYP2C9; details: mechanistic static modeling, cited from earlier work
[24] = test system: major hepatic P450 enzymes; details: cited from earlier work
[25] = CYP2C9-mediated diclofenac metabolism
[26] = CYP2C9-mediated warfarin metabolism
[27] = diclofenac -> 4′-hydroxydiclofenac, adjusted with fu,inc of Δ9-THC / 11-OH-Δ9-THC, 3 experiments
[28] = warfarin -> 7′-hydroxywarfarin, adjusted with fu,inc
[29] = 4′-hydroxylation of diclofenac, adjusted with fu,inc
[30] = 7′-hydroxylation of warfarin, adjusted with fu,inc
[31] = diclofenac -> 4′-hydroxydiclofenac

T1 sequence (P11712 whole entry): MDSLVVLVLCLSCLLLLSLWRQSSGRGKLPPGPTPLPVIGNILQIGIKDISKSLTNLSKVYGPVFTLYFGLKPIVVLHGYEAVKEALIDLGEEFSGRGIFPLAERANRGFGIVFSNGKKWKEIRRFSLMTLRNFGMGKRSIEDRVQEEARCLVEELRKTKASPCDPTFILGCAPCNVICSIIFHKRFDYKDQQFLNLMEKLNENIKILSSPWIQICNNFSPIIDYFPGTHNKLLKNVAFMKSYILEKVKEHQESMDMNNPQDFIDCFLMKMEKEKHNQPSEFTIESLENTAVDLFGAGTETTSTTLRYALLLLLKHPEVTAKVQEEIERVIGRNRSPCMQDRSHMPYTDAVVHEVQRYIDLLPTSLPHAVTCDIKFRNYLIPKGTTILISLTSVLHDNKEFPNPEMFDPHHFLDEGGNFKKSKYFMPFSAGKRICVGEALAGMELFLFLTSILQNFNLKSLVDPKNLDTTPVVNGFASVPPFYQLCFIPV
T2 sequence (P08684 whole entry): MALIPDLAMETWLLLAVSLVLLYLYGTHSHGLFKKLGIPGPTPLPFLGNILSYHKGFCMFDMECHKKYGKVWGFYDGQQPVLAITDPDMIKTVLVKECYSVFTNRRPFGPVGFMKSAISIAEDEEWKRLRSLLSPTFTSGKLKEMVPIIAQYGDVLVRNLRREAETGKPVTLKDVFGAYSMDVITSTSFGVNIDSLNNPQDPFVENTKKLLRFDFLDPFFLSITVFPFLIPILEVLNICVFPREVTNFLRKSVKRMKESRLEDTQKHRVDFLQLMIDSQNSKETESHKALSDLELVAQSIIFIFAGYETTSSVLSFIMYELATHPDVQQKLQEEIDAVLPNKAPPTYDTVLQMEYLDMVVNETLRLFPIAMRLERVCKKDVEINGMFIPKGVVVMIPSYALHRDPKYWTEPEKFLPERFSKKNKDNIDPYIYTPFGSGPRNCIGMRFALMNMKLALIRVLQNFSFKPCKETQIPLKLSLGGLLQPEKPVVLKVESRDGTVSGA

Compound: CCCCCc1cc(O)c2c(c1)OC(C)(C)C1CC=C(CO)CC21 (stereo not shown) [11-OH-Δ8-THC, 11-hydroxy-Δ8-THC]
- inhibition of other major hepatic P450 enzymes tested [1]: Minimal or no inhibition
- IC50 ([2]; pH 7.4, probe diclofenac, warfarin (CYP2C9), midazolam (CYP3A4), recombinant P450-overexpressing microsomes, read-out: IC50,u across all P450 enzyme-substrate pairs): 790 to 1500 nM
- Ki ([2]; pH 7.4, recombinant microsomes and HLM, read-out: Ki,u across all reactions): 400 to 1200 nM
- IC50 at 10 min ([2]; pooled human liver microsomes, pH 7.4, probe diclofenac, warfarin (CYP2C9), midazolam (CYP3A4), HLM, read-out: IC50,u across all P450 enzyme-substrate pairs): 710 to 1700 nM
- Cmax ([3]; oral Δ8-THC dose 10 mg): 15 nM
- Cmax ([3]; oral Δ8-THC dose 20 mg): 100 nM
- Cmax ([3]; oral Δ8-THC dose 40 mg): 120 nM
- fu,p (unbound fraction of drug in plasma) [4]: 0.03
- IC50 [8]: 1480 ± 210 nM
- Ki [8]: 890 ± 200 nM
- Inhibition Type [8]: N
- inhibition mechanism (Lineweaver–Burk) [8]: noncompetitive inhibition
- IC50 [9, 31]: 710 ± 430 nM
- IC50 ([9]; warfarin -> 7′-hydroxywarfarin): 1720 ± 100 nM
- Ki ([9]; 4′-hydroxylation of diclofenac): 770 ± 40 nM
- Ki ([9]; 7′-hydroxylation of warfarin): 400 ± 80 nM
- IC50 [10]: 1570 ± 320 nM
- Ki [10]: 1200 ± 70 nM
- reduction of 4′-hydroxydiclofenac formation [11]: > 40%
- reduction of 7′-hydroxywarfarin formation [11]: > 40%
- reduction of 1′-hydroxymidazolam formation [12]: > 40%
- inhibition of CYP3A4 with testosterone as substrate [12]: inhibition observed for midazolam but not testosterone

Compound: CCCCCc1cc(O)c2c(c1)OC(C)(C)C1CCC(CO)=CC21 (stereo not shown) [11-OH-Δ9-THC]
- Ki ([13]; CYP2B6 in HLM): 260 ± 41 nM
- Ki ([13]; recombinant CYP2B6): 86 ± 66 nM
- mechanism of inhibition [14]: competitive inhibitors
- inhibitory effect on CYP3A4 [15]: not observed previously

Compound: C=C(C)[C@@H]1CCC(C)=C[C@H]1c1c(O)cc(CCCCC)cc1O [CBD, cannabidiol]
- increase in systemic exposure of midazolam [16]: > 8 fold

Compound: O=C(O)Cc1ccccc1Nc1c(Cl)cccc1Cl [diclofenac]
- Fg (fraction of substrate available after intestinal metabolism) [17]: 0.64
- fm (fraction of hepatic clearance mediated by the inhibited P450 enzyme) [17]: 0.98

Compound: Cc1ncc2n1-c1ccc(Cl)cc1C(c1ccccc1F)=NC2 [midazolam]
- Fg (fraction of substrate available after intestinal metabolism) [17]: 0.51
- fm (fraction of hepatic clearance mediated by the inhibited P450 enzyme) [17]: 0.93

Compound: CC(=O)CC(c1ccccc1)c1c(O)c2ccccc2oc1=O (stereo not shown) [warfarin]
- fm (fraction of hepatic clearance mediated by the inhibited P450 enzyme) [17]: 0.91

Compound: CCCCCc1cc(O)c2c(c1)OC(C)(C)C1CC=C(C)CC21 (stereo not shown) [Δ8-THC, Δ8-Tetrahydrocannabinol]
- inhibition of other major hepatic P450 enzymes tested [1]: Minimal or no inhibition
- IC50 ([2]; pH 7.4, both recombinant enzyme microsomes and HLM, read-out: IC50,u against CYPs 2C9 and 3A4): < 500 nM
- potency relative to Δ9-THC [18]: approximately half
- potency relative to Δ9-THC [19]: approximately half
- Cmax ([3]; oral Δ8-THC dose 10 mg): 7.9 nM
- Cmax ([3]; oral Δ8-THC dose 20 mg): 17.8 nM
- Cmax ([3]; oral Δ8-THC dose 40 mg): 48 nM
- fu,p (unbound fraction of drug in plasma) [4]: 0.03
- IC50 shift at 30 min [5]: 1.24 ± 0.34
- IC50 shift at 30 min [6]: 0.85 ± 0.09
- Inhibition Type ([7]; 4′-hydroxylation of diclofenac): N
- inhibition mechanism (Lineweaver–Burk) [7, 25]: noncompetitive inhibition
- inhibition mechanism (Lineweaver–Burk) [7, 26]: competitive inhibition
- IC50 [7, 27]: 70 ± 10 nM
- IC50 [7, 28]: 200 ± 30 nM
- Ki [7, 29]: 260 ± 10 nM
- Ki [7, 30]: 90 ± 40 nM
- Ki ([7]; human, recombinant CYP2C9-overexpressing HEK293 microsomes, pH 7.4, probe warfarin (7′-hydroxylation), 7′-hydroxylation of warfarin, adjusted with fu,inc): 160 ± 40 nM
- IC50 [8]: 440 ± 140 nM
- Ki [8]: 860 ± 280 nM
- Inhibition Type [8]: N
- inhibition mechanism (Lineweaver–Burk) [8]: noncompetitive inhibition
- IC50 [9, 31]: 230 ± 30 nM
- IC50 ([9]; warfarin -> 7′-hydroxywarfarin): 440 ± 140 nM
- Ki ([9]; 4′-hydroxylation of diclofenac): 320 ± 60 nM
- Ki ([9]; 7′-hydroxylation of warfarin): 230 ± 90 nM
- IC50 [10]: 480 ± 110 nM
- Ki [10]: 520 ± 20 nM
- reduction of 4′-hydroxydiclofenac formation [11]: > 40%
- reduction of 7′-hydroxywarfarin formation [11]: > 40%
- reduction of 1′-hydroxymidazolam formation [12]: > 40%
- inhibition of CYP3A4 with testosterone as substrate [12]: inhibition observed for midazolam but not testosterone

Compound: CCCCCc1cc(O)c2c(c1)OC(C)(C)C1CC=C(C(=O)O)CC21 (stereo not shown) [Δ8-THC-COOH, 11-nor-Δ8-tetrahydrocannabinol-9-carboxylic acid]
- inhibition of any P450 enzymes tested [1]: minimal or no inhibition; also recorded: no inhibition
- inhibition of any P450 enzymes tested ([1]; listed as 11-nor-Δ8-THC-9-carboxylic acid): no significant inhibition

Compound: CCCCCc1cc(O)c2c(c1)OC(C)(C)C1CCC(C)=CC21 (stereo not shown) [Δ9-THC, Δ9-tetrahydrocannabinol]
- Ki ([20]; CYP1A2 in HLM): 100 ± 56 nM
- Ki ([20]; recombinant CYP1A2): 90 ± 27 nM
- Ki ([13]; CYP2B6 in HLM): 380 ± 29 nM
- Ki ([13]; recombinant CYP2B6): 250 ± 43 nM
- mechanism of inhibition [14]: competitive inhibitors
- Ki ([21]; CYP2C19 in HLM): 210 ± 82 nM
- Ki ([21]; recombinant CYP2C19): 56 ± 18 nM
- Ki ([22]; CYP2D6 in HLM): 280 ± 30 nM
- Ki ([22]; recombinant CYP2D6): 110 ± 15 nM
- increase in systematic exposure of diclofenac ([23]; 40 mg oral dose of Δ9-THC): ≥ 44%
- increase in systematic exposure of diclofenac ([23]; 130 mg oral dose of Δ9-THC): > 560%

Compound: CCCCCc1cc(O)c2c(c1)OC(C)(C)C1CCC(C(=O)O)=CC21 (stereo not shown) [Δ9-THC-COOH]
- inhibition of any major hepatic P450 enzymes [24]: no inhibition
